Assay: Solubility of active ingredients in solvents

CCc1cc(C)cc(CC)c1-c1c(OC(=O)C(C)(C)C)n2n(c1=O)CCOCC2 [pinoxaden, 8-(2,6-diethyl-4-methylphenyl)-1,2,4,5-tetrahydro-7-oxo-7H-pyrazolo[1,2-d][1,4,5]oxadiazepin-9-yl 2,2-dimethylpropionate]
Solvent quality of 1,2-propylene carbonate for the active ingredient (1,2-propylene carbonate): only a moderately good solvent
Solvent quality of tetrahydrofurfuryl alcohol (THFA) for the active ingredient (THFA): excellent solvent
Solvent quality of benzyl alcohol for the active ingredient (benzyl alcohol): excellent solvent
